Our source for the inhibition and IC50 values is patent US8344010B2, “Fused imidazole derivatives as TRPV3 antagonist” (Glenmark Pharmaceuticals S.A., priority 2008, dated 2013).

The term inhibition denotes the drop in the measured response relative to a control, in per cent. Broadly, the pIC50 is the negative decadic logarithm of the IC50, by convention in mol/L.

The structures appear in SMILES notation. pIC50: −log10 of the molar value. Where only a bound is given, the exact number is not on record here.

This test addresses T1, Human TRPV3 (Homo sapiens, UniProt Q8NET8).
T1 construct: expressed in transfected cells; host or cells: CHO cells (selected with G-418)
T1 sequence (Q8NET8 1-790): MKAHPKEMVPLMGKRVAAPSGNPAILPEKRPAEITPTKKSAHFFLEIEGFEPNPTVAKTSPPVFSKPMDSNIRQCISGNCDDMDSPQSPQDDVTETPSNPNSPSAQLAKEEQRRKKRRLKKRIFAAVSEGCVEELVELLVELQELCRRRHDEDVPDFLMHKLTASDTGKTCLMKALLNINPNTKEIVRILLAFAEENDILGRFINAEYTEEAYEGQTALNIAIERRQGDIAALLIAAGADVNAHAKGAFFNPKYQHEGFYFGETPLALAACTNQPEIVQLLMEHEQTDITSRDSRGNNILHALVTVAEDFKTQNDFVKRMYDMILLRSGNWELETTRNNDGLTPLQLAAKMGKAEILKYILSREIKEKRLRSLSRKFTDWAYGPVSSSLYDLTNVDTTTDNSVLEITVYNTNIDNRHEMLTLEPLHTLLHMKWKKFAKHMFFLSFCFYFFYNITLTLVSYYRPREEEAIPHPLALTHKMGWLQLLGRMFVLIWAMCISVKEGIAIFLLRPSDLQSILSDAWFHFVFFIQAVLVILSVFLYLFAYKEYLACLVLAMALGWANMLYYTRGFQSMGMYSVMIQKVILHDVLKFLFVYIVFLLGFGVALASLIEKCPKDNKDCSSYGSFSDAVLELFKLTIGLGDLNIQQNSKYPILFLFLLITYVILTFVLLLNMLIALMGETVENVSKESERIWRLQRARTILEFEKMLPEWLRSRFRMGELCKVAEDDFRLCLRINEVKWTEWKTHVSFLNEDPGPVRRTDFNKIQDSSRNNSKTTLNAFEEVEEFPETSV
The test is described as follows: 45Calcium uptake assay: inhibition of 2-APB induced cellular uptake of radioactive calcium. The following applies: human TRPV3 expressing CHO cells, 2-APB 500 μM; for inhibition at 1 µM: 1 μM test compound, read-out: Percentage Inhibition (1 μM); for inhibition at 10 µM: 10 μM test compound, read-out: Percentage Inhibition (10 μM); for pIC50: class symbol. In kind it is cell-based. In a few lines:
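CHO cells expressing human TRPV3 were preincubated with compound for 10 min (0.5% DMSO final), then given 500 μM 2-APB plus 5 μCi/ml 45Ca2+ for 4 min. Lysate radioactivity was counted by scintillation; responses as % of maximal without antagonist, with IC50 by nonlinear regression.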

Turning to `COc1cccc(/C=C/c2nc3ccc(Cl)cc3n2-c2ccc(C#N)cn2)c1OCC(C)C` [Example 52, 6-(6-Chloro-2-{(E)-2-[3-methoxy-2-(2-methylpropoxy)phenyl]ethenyl}-1H-benzimidazol-1-yl)pyridine-3-carbonitrile], the inhibition at 1 µM stood at 97.7%, the inhibition at 10 µM came out at 98.4% and the pIC50 is 7.00 to 7.30.

In the case of `COc1ccccc1-n1c(/C=C/c2cccc(OC)c2OC2CCCC2)nc2ccccc21` [Example 32, 2-[(E)-2-(2-Cyclopentyloxy-3-methoxyphenyl)vinyl]-1-(2-methoxyphenyl)-1H-benzimidazole], the inhibition at 1 µM was 9.07% and the inhibition at 10 µM turned out to be 0%.

With `COc1cccc(/C=C/c2nc3ccccc3n2-c2ccc(C#N)cn2)c1OC1CCCC1` [Example 13, 6-{2-[(E)-2-(2-Cyclopentyloxy-3-methoxyphenyl)vinyl]-1H-benzimidazol-1-yl}nicotinonitrile], the inhibition at 1 µM was 89.1%, the inhibition at 10 µM was 95.8% and the pIC50 was 6.30 to 7.00.

As for `CCOC(=O)c1ccc(-n2c(/C=C/c3cccc(OC)c3OC3CCCC3)nc3cc(F)c(F)cc32)nn1` [Example 73, Ethyl 6-{2-[(E)-2-(2-cyclopentyloxy-3-methoxyphenyl)vinyl]-5,6-difluoro-1H-benzimidazol-1-yl}pyridazine-3-carboxylate], the inhibition at 1 µM came to 53.5% and the inhibition at 10 µM is 75.5%.

Consider `COc1ccc2nc(/C=C/c3cccc(OC)c3OC3CCCC3)n(-c3ccc(C#N)cn3)c2c1` [Example 51, 6-{2-[(E)-2-(2-Cyclopentyloxy-3-methoxyphenyl)vinyl]-6-methoxy-1H-benzimidazol-1-yl}nicotinonitrile], for which the inhibition at 1 µM came to 96.2%, the inhibition at 10 µM turned out to be 97.8% and the pIC50 was 7.00 to 7.30.

Consider `CCCCCOc1c(/C=C/c2nc3c(F)c(F)c(F)cc3n2-c2ccc(C#N)cn2)cccc1OC` [Example 81, 6-{2-[(E)-2-(2-pentyloxy-3-methoxyphenyl)vinyl]-4,5,6-trifluoro-1H-benzimidazol-1-yl}nicotinonitrile], for which the inhibition at 1 µM is 90.7%, the inhibition at 10 µM is 95.7% and the negative logarithm of the IC50 (pIC50) was more than 7.30.

On to `CCCCOc1c(/C=C/c2nc3ccccc3n2-c2ccc(C#N)cc2)cccc1OC` [Example 36, 4-{2-[(E)-2-(2-Butoxy-3-methoxyphenyl)vinyl]-1H-benzimidazol-1-yl}benzonitrile], for which the inhibition at 1 µM is 82.8%, the inhibition at 10 µM was 96% and the pIC50 was 6.30 to 7.00.

For the molecule `N#Cc1ccc(-n2c(/C=C/c3cccc(OC(F)F)c3OCC3CCC3)nc3cc(Cl)cnc32)nc1` [Example 102, 6-(6-Chloro-2-{(E)-2-[2-(cyclobutylmethoxy)-3-difluoromethoxyphenyl]vinyl}-3H-imidazo[4,5-b]pyridin-3-yl)nicotinonitrile], the inhibition at 1 µM turned out to be 95.1%, the inhibition at 10 µM is 98.1% and the pIC50 was 7.00 to 7.30.

As for `COc1cccc(/C=C/c2nc3ccccc3n2-c2cccs2)c1OCC1CC1` [Example 45, 2-[(E)-2-(2-Cylopropymethoxy-3-methoxyphenyl)]-1-(2-thienyl)-1H-benzimidazole], the inhibition at 1 µM came to 43.4% and the inhibition at 10 µM was determined as 83.8%.

`COc1cccc(/C=C/c2nc3cc(Cl)ccc3n2-c2ccc(C#N)cn2)c1OC1CCCC1` [Example 55, 6-{5-chloro-2-[(E)-2-(2-cyclopentyloxy-3-methoxyphenyl)vinyl]-1H-benzimidazol-1-yl}nicotinonitrile]: the inhibition at 1 µM is 95.9%, the inhibition at 10 µM amounted to 97.6% and the pIC50 is 6.30 to 7.00.
